Common to all, as to type: cell-based, human
One experiment has as its system MDA-MB436 cells. The experiment is described as follows: Cell apoptosis assay (caspase-3/7). As to conditions: 3 μM OF-1 + 3 μM BAY-876, 5 days, versus either alone. The protocol:
Cells were seeded into 96-well plates at 3000 cells per well and left to adhere overnight. Then, cells were treated with DMSO or BAY-876 for 5 days, followed by addition of Incucyte TM Caspase- 3/7 reagents. Imaging of plates was carried out in an Incucyte Zoom instrument with a ×10 objective using the standard scan type. Data were analyzed using the integrated software provided with the instrument.
Wu et al., Supplementary figures and tables 5 indicate mean and error bars denote standard deviation from eight wells (from two independent assays). b) A representative immunoblot of histone acetylation level across ten TNBC lines. c) Plot of ECAR and histone acetylation across ten TNBC lines. […] Cell apoptotic activity was quantified by the fluorescent caspase 3/7 active objects. […]
Graph indicate mean and error bars denote standard deviation from four independent assay s. p value computed using a two - stage step -up Benjamini t test j) Immunoblot based quantification of H3K14ac abundance using total H3 as a control in MDA-MB-436 cells following control or 3 μM of the indicated chemical probes during a 5-day treatment. Graph indicate mean and error bars denote standard deviation from three independent assays. p value computed using a two-stage step-up Benjamini t test; **p<0.01; *** p<0.001. k) Immunoblot based quantification of H3K14ac abundance using total […]

In another experiment the test system is MDA-MB-436 cells. The experiment can be described thus: Glucose uptake assay. Conditions: 3 µM BAY-876, 5 days. The protocol: Glucose uptake was assayed according to the established protocol from a commercial glucose uptake kit (ab136955; Abcam). In brief, MDA-MB-436 cells were seeded in six-well plates followed by overnight incubation. The next day cells were treated with DMSO or indicated concentration of BAY-876. After 5 days, cells were washed three times with cold phosphate-buffered saline (PBS) and lysed with extraction buffer, frozen at −80 °C for 10 min and heated at 85 °C for 40 min. After cooling on ice for 5 min, the lysates were neutralized by adding neutralization buffer and centrifuged. The remaining lysate was then diluted with assay buffer. Finally, the colorimetric endproduct generation was set up by two amplification steps according to the manufacturer’s instructions in the kit and then detected at 412 nm using iMark microplate reader (Bio-Rad).

The next experiment concerns TNBC cells. The experiment is described as follows: Colony formation assay. As to conditions: 3 µM, 2 weeks. The protocol: Colony formation studies were performed with TNBC cells on treatment with DMSO or the indicated concentrations of BAY-876. Cells were seeded into 6-well plates at 200 cells per well and left to adhere overnight. Then, cells were treated with DMSO or 3 µM BAY-876. After 2 weeks, the cells were stained with crystal violet and imaged.

`COc1cc2c(cc1NS(=O)(=O)c1ccc(Br)cc1C)n(C)c(=O)n2C` [OF-1]: in the experiment with MDA-MB436 cells, the “apoptosis markers caspase-3/7” value is listed as “induced at a significantly higher level”.

Turning to `Cc1c(NC(=O)c2cc(C(N)=O)nc3cc(F)ccc23)c(C(F)(F)F)nn1Cc1ccc(C#N)cc1` [BAY-876], the glucose uptake entry with MDA-MB-436 cells is “inhibits glucose uptake”. Besides, the “cell growth (colony formation)” value with TNBC cells was “no overt effect on cell growth”.

The values above are taken from paper PMC6478789, “A chemical toolbox for the study of bromodomains and epigenetic signaling” (Nature Communications, 2019).
